The text below walks through data of patent US6632816B1, “Aromatic derivatives as HIV aspartyl protease inhibitors” (Pharmacor Inc., priority 2002, dated 2003).

Where two headings read alike, the source gives them in different places. Where only a bound is given, the exact number is not on record here.

In assay [1] the target is T1, HIV protease (Human immunodeficiency virus type 1 group M subtype B, UniProt P04585). To be noted: FRET assay, Henderson equation.
Assay [2] concerns HIV-1 laboratory viral strain NL4.3 (wild type virus). Description: Anti-viral assay in vitro (MTT, infected MT-4 cells). The format is cell-based. As to conditions: MT-4 cells infected with NL4.3, six days, MTT assay, read-out: EC50. How it is done: Anti-viral and Cytotoxicity Assays In Vitro
To evaluate the EC50 of our compounds, various drug concentrations are incubated with the infected cell for six days and then the metabolic activity of the cells is monitored by the MTT assay. (See A. J. Japour et al, Antimicrobial Agents and Chemotherapy, 37, 1095-1101, 1993 and R. Pauwels et al. Journal of Virological Methods, 20, 309-321, 1988)
We use the laboratory viral strain NL4.3 as wild type virus and the cell line used is MT-4 which is a T-cell line highly sensitive to HIV-1. We also use some WT clinical strains. To address the resistance issue we assay the inhibitors with NL4.3 mutants which are designed to be resistant to specific commercially,available inhibitors

In assay [3] the target is T1, HIV protease. Briefly: biochemical.
The mark [4] stands for this setting: Human immunodeficiency virus 1, MT4, 144 h.

With `COC(=O)N[C@@H](Cc1ccccc1-c1ccccc1)C(=O)NCCCCC(CO)N(CC(C)C)S(=O)(=O)c1ccc(N)cc1` (stereo partly drawn) [Example 30, (1S,5R,S)-(1-{5-[(4-Amino-benzenesulfonyl)-isobutyl-amino]-6-hydroxy-hexylcarbamoyl}-2-biphenyl-2-yl-ethyl)-carbamic Acid Methyl Ester], at HIV protease [1], the Ki was determined as 0.0014 µM. In addition, the EC50 in assay [2] was 0.344 µM.

For `COC(=O)N[C@@H](Cc1ccccc1-c1cccc(F)c1)C(=O)NCCCC[C@@H](CO)N(CC(C)C)S(=O)(=O)c1ccc(N)cc1` [Example 52, (1S,5S)-[1-{5-[(4-Amino-benzenesulfonyl)-isobutyl-amino]-6-hydroxy-hexylcarbamoyl}-2-(3′-fluoro-biphenyl-2-yl)-ethyl]-carbamic Acid Methyl Ester], the affinity on HIV protease [3] corresponds to a Ki of 0.0007 µM. Also, in assay [2] (setting [4]), the EC50 stood at 0.152 µM.

`CC(C)CN([C@H](CO)CCCCNC(=O)[C@H](Cc1cccc2ccccc12)NC(=O)N1CCOCC1)S(=O)(=O)c1ccc(F)c(N)c1` [Example 53, (1S,5S)-Morpholine-4-carboxylic Acid (1-{5-[(3-Amino-4-fluoro-benzenesulfonyl)-isobutyl-amino]-6-hydroxy-hexylcarbamoyl}-2-naphthalen-1-yl-ethyl)-amide] registered a Ki at HIV protease [3] of 0.000626 µM. For the same compound, the EC50 in assay [2] (setting [4]) came to 0.04 µM.

On HIV protease [3], `CC(C)CN([C@H](CO)CCCCNC(=O)[C@H](Cc1ccc2ccccc2c1)NC(=O)c1cccnc1)S(=O)(=O)c1ccc(N)cc1` [Example 54, (1S,5S)-N-(1-{5-[(4-Amino-benzenesulfonyl)-isobutyl-amino]-6-hydroxy-hexylcarbamoyl}-2-naphthalen-2-yl-ethyl)-nicotinanide] registered an inhibition constant Ki of 0.0014 µM. The EC50 in assay [2] (setting [4]) amounted to 0.146 µM.

Regarding `CC(C)CN([C@H](CO)CCCCNC(=O)[C@H](Cc1ccc2ccccc2c1)NC(=O)c1ccncc1)S(=O)(=O)c1ccc(N)cc1` [Example 55, (1S,5S)-N-(1-{5-[(4-Amino-benzenesulfonyl)-isobutyl-amino]-6-hydroxy-hexylcarbamoyl}-2-naphthalen-2-yl-ethyl)-isonicotinamide], on HIV protease [3], the Ki worked out at 0.0013 µM. The EC50 in assay [2] (setting [4]) turned out to be 0.11 µM.

The compound `COC(=O)N[C@@H](Cc1ccccc1-c1cccc(F)c1)C(=O)NCCCC[C@@H](CO)N(CC(C)C)S(=O)(=O)c1ccc(F)c(N)c1` [Example 56, (1S,5S)-[1-{5-[(3-Amino-4-fluoro-benzenesulfonyl)-isobutyl-amino]-6-hydroxy-hexylcarbamoyl}-2-(3′-fluoro-biphenyl-2-yl)-ethyl]-carbamic Acid Methyl Ester] showed a Ki at HIV protease [3] of 0.0013 µM. The 50% effective concentration (EC50) in assay [2] (setting [4]) is 0.3 µM.

Regarding `COC(=O)N[C@H](C(=O)NCCCC[C@@H](CO)N(CC(C)C)S(=O)(=O)c1ccc(F)c(N)c1)C(c1ccccc1)c1ccccc1` [Example 58, (1S,5S)-(1-{5-[(3-Amino-4-fluoro-benzenesulfonyl)-isobutyl-amino]-6-hydroxy-hexylcarbamoyl}-2,2-diphenyl-ethyl)-carbamic Acid Methyl Ester], the Ki on HIV protease [3] turned out to be 0.00065 µM. For the same compound, the EC50 in assay [2] (setting [4]) is 0.025 µM.

As for `CC(C)CN([C@H](CO)CCCCNC(=O)[C@H](Cc1ccc2ccccc2c1)NC(=O)c1cnccn1)S(=O)(=O)c1ccc(N)cc1` [Example 62, (1S,5S)-Pyrazine-2-carboxylic Acid (1-{5-[(4-Amino-benzenesulfonyl)-isobutyl-amino]-6-hydroxy-hexylcarbamoyl}-2-naphthalen-2-yl-ethyl)-amide], on HIV protease [3], the Ki is 0.0021 µM. The concentration for a half-maximal effect (EC50) in assay [2] (setting [4]) amounted to 0.361 µM.

`CC(C)CN([C@H](CO)CCCCNC(=O)[C@H](Cc1cccc2ccccc12)NC(=O)N1CCOCC1)S(=O)(=O)c1ccc2c(c1)OCO2` [Example 66, (1S,5S)-Morpholine-4-carboxylic Acid (1-{5-[(Benzo[1,3]dioxole-5-sulfonyl)-isobutyl-amino]-6-hydroxy-hexylcarbamoyl}-2-naphthalen-1-yl-ethyl)-amide]: the affinity at HIV protease [3] corresponds to a Ki of 0.0011 µM. Also, the EC50 in assay [2] (setting [4]) was found to be 0.409 µM.

Consider `CC(=O)N[C@H](C(=O)NCCCC[C@@H](CO)N(CC(C)C)S(=O)(=O)c1ccc(N)cc1)C(c1ccccc1)c1ccccc1` [Example 71, (2S,5S)-2-Acetylamino-N-{5-[(4-amino-benzenesulfonyl)-isobutyl-amino]-6-hydroxy-hexyl}-3,3-diphenyl-propionamide], for which, on HIV protease [3], the Ki was 0.0015 µM. Besides, the EC50 in assay [2] (setting [4]) turned out to be 0.066 µM.

Regarding `CC(C)CN([C@H](CO)CCCCNC(=O)[C@@H](NC(=O)c1cccnc1)C(c1ccccc1)c1ccccc1)S(=O)(=O)c1ccc(N)cc1` [Example 73, (1S,5S)-N-(1-{5-[(4-Amino-benzenesulfonyl)-isobutyl-amino]-6-hydroxy-hexylcarbamoyl}-2,2-diphenyl-ethyl)-nicotinamide], the Ki on HIV protease [3] came out at 0.000681 µM. For the same compound, the EC50 in assay [2] (setting [4]) worked out at 0.039 µM.

Compound `CC(C)CN([C@H](CO)CCCCNC(=O)[C@@H](NC(=O)c1ccncc1)C(c1ccccc1)c1ccccc1)S(=O)(=O)c1ccc(N)cc1` [Example 74, (1S,5S)-N-(1-{5-[(4-Amino-benzenesulfonyl)-isobutyl-amino]-6-hydroxy-hexylcarbamoyl}-2,2-diphenyl-ethyl)-isonicotinamide] returned a Ki at HIV protease [3] of 0.000647 µM. The EC50 in assay [2] (setting [4]) was found to be 0.032 µM.

On HIV protease [3], `CC(C)CN([C@H](CO)CCCCNC(=O)[C@@H](NC(=O)C1CC1)C(c1ccccc1)c1ccccc1)S(=O)(=O)c1ccc(N)cc1` [Example 75, (1S,5S)-Cyclopropanecarboxylic Acid (1-{5-[(4-Amino-benzenesulfonyl)-isobutyl-amino]-6-hydroxy-hexylcarbamoyl}-2,2-diphenyl-ethyl)-amide] returned a Ki below 0.0038 µM. For the same compound, the EC50 in assay [2] (setting [4]) amounted to 0.025 µM.

`CC(C)CN([C@H](CO)CCCCNC(=O)[C@@H](NC(=O)C1CCCCC1)C(c1ccccc1)c1ccccc1)S(=O)(=O)c1ccc(N)cc1` [Example 76, (1S,5S)-Cyclohexanecarboxylic Acid (1-{5-[(4-Amino-benzenesulfonyl)-isobutyl-amino]-6-hydroxy-hexylcarbamoyl}-2,2-diphenyl-ethyl)-amide] had an inhibitory constant (Ki) at HIV protease [3] below 0.0038 µM. Also, the half-maximal effective concentration (EC50) in assay [2] (setting [4]) was determined as 0.093 µM.

`CC(C)CN(C(CO)CCCCNC(=O)C(NC(=O)C1CCOC1)C(c1ccccc1)c1ccccc1)S(=O)(=O)c1ccc(N)cc1` [Example 77, (1S,3R,S,5S)-Tetrahydro-furan-3-carboxylic Acid (1-{5-[(4-Amino-benzenesulfonyl)-isobutyl-amino]-6-hydroxy-hexylcarbamoyl}-2,2-diphenyl-ethyl)-amide] had a Ki on HIV protease [3] of 0.000581 µM. Also, in assay [2] (setting [4]), the EC50 is 0.068 µM.

`COC(=O)N[C@H](C(=O)NCCCC[C@@H](CO)N(CC(C)C)S(=O)(=O)c1ccc(F)cc1)C(c1ccccc1)c1ccccc1` [Example 78, (1S,5S)-(1-{5-[(4-Fluoro-benzenesulfonyl)-isobutyl-amino]-6-hydroxy-hexylcarbamoyl}-2,2-diphenyl-ethyl)-carbamic Acid Methyl Ester] returned an inhibition constant (Ki) on HIV protease [3] below 0.0038 µM. For the same compound, the EC50 in assay [2] (setting [4]) is 0.094 µM.

On to `COC(=O)N[C@H](C(=O)NCCCC[C@@H](CO)N(CC(C)C)S(=O)(=O)c1ccc(C#N)cc1)C(c1ccccc1)c1ccccc1` [Example 79], for which, at HIV protease [3], the Ki was below 0.0038 µM. The EC50 in assay [2] (setting [4]) is 0.065 µM.

For `COC(=O)N[C@H](C(=O)NCCCC[C@@H](CO)N(CC(C)C)S(=O)(=O)c1ccc(F)cc1F)C(c1ccccc1)c1ccccc1` [Example 80, (1S,5S)-(1-{5-[(2,4-Difluoro-benzenesulfonyl)-isobutyl-amino]-6-hydroxy-hexylcarbamoyl}-2,2-diphenyl-ethyl)-carbamic Acid Methyl Ester], at HIV protease [3], the Ki is below 0.0038 µM. Also, the concentration giving a half-maximal response (EC50) in assay [2] (setting [4]) amounted to 0.048 µM.

For orientation: Ki means the equilibrium dissociation constant of an inhibitor or competing ligand from its target. Higher therefore signals a looser hold on the target. In general, EC50 refers to the concentration that produces a half-maximal response.
